# Experimental data as given in patent US9687432B2, “Antimicrobial bispyridine amine compositions and uses” (LONZA INC., priority 2012, dated 2017).
# Structures can show the parent of a compound that is named as a salt. Where two headings read alike, the source gives them in different places.
# What was measured:
# [1] = test system: EpiDerm™ Skin Model (EPI-200); experiment: MatTek EpiDerm MTT Viability Assay (dermal irritancy); assay type: cell-based, human
# Method: The MatTek EpiDerm™ MTT Viability Assay (MatTek Corp.) was utilized to determine the dermal irritancy and toxicology of octenidine distearate and octenidine dihydrochloride. The assay was performed using the EpiDerm™ Skin Model (EPI-200) as well as the Methyl thiazole tetrazolium (MT) Kit (MTT-100). The EpiDerm™ Skin Model closely parallels human skin, thus providing a useful in vitro method to assess dermal irritancy and toxicology.
# Negative controls (treated with tissue culture water) were tested at 4 hours only. Following treatment, the viability of the tissues was determined using MTT uptake and reduction. The absorbance of each sample was measured at 540 nm using a reference wavelength of 690 nm. The viability was then expressed as a percent of Negative Control or Vehicle Control values. The mean percent viability for each time point was used to calculate and ET50, which represents the time at which the EpiDerm™ tissue viability was reduced 50%, compared to Negative Control or Vehicle Control tissues. The ET50 scores were converted to an irritancy classification.
# MTT Reduction: 704 μl of mineral oil were heated at 70 C for 10 minutes.
# Before use, tissues were incubated (37° C.±1 C, 5%±1% CO2) with assay medium (MatTek) for a one-hour equilibration. Equilibration medium was replaced with fresh medium before dosing.
# (§1) The test articles were diluted as described in the sample preparation above. 100 μl of the test article dilution were mixed with 1 ml of MTT solution (1 mg/ml MTT diluted in Dulbecco's Modified Eagle's Medium (DMEM). A negative control (100 μl of tissue culture water) and a vehicle control (100 μl of mineral oil) were tested concurrently. The solutions were incubated at room temperature in the dark for 60 minutes. After incubation, the solutions were visually inspected for purple coloration, which is a positive indication that the test article reduced MTT. Since tissue viability is based on MTT reduction, direct reduction by a test article can exaggerate viability, making a test article seem less irritating that it really is.
# 100 μl of the test article dilutions were applied to the top of each EpiDerm™ tissue. The test articles remained in contact with the EpiDerm™ tissue for 1, 4 and 24 hours. Vehicle controls (TCH20 and mineral oil) for the test articles were tested at 4 hours. A positive control (1% Triton® X-100) was tested at 4 and 9 hours. […]
# (§2) At the end of the selected exposure periods, each EpiDerm™ tissue was rinsed with phosphate buffered saline (PBS) and transferred to a 24-well plate containing 300 μl of MTT solution (1 mg/ml MTT in DMEM). […] An aliquot of the extracted MTT formazan was measured at 540 nm using a plate reader (pQuant Plate Reader, Bio-Tek Instruments, Winooski, Vt.), subtracting the absorbance at a reference wavelength of 690 nm.
# Foam height test = assay type: physicochemical; settings: for foam height, 30 sec / foam height, 1 min / foam height, 2 min / foam height, Initial Reading: 0.5 grams in 49.5 ml DI water; for foam height, 30 sec / foam height, 1 min / foam height, 2 min: 100 ml graduated cylinder; for foam height, Initial Reading: read in 100 ml graduated cylinder with 1 ml line increments; for Type of Foam: 0.5 grams of active in 49.5 ml DI water, blended 1 minute
# Method: The testing was performed on samples containing octenidine dihydrochloride, octenidine distearate, PHMB HCl and the chloride salts benzalkonium chloride, benzethonium chloride, and cetylpyridinium chloride.
# A 250 ml beaker was filed with 49.5 ml of deionized (DI) water for each sample. Then, 0.5 grams of the active was added to the beaker. Each solution was blended with a Bamix® wand homogenizer/mixer for 1 minute. The solution was then poured into a 100 ml graduated cylinder with 1 ml line increments. The height of the foam was documented at an initial, 30 second, 1 minute, and 2 minute time point.
# [2] = test system: EpiOcular™ Tissue Model (OCL-200); experiment: MatTek EpiOcular MTT Viability Assay (ocular irritancy); assay type: cell-based, human
# Method: The MatTek EpiOcular™ MTT Viability Assay (MatTek Corp.) was utilized to assess ocular irritancy and toxicology of octenidine distearate and octenidine dihydrochloride. The assay was performed using the MatTek EpiOcular™ Tissue Model (OCL-200) as well as the Methyl thiazole tetrazolium (MT) Kit (MT-100). The EpiOcular™ Tissue Model closely parallels human ocular tissue, thus providing a useful in vitro method to assess ocular irritancy and toxicology.
# MTT Reduction: 704 μl of mineral oil were heated at 70° C. for 10 minutes.
# 0.3% Triton® X-100 (MatTek) (clear liquid) was used as a positive control. Tissue culture water (TCH20) (Sigma) (clear liquid) was used as a negative control. Mineral oil (Sigma) (clear liquid) was used as a vehicle control.
# Before use, tissues were incubated (37° C.±1° C., 5%±1% CO2) with assay medium (MatTek) for a one-hour equilibration. Equilibration medium was replaced with fresh medium before dosing.
# as §1, with “is. […]” for “is.”
# as §2, with “EpiOcular™” for “EpiDerm™”, “(PBS), soaked for 10 minutes in assay medial” for “(PBS)”, “(μQuant” for “(pQuant”
# The mean absorbance value for each time point was calculated from the optical density (OD) of the duplicate samples and expressed as percent viability for each sample using the following formula: % viability=100×(OD sample/OD negative control or vehicle control) The ET50, the time at which the EpiOcular™ tissue viability was reduced 50% compared to control tissues, was then determined using a macro in Microsoft Excel 5.0, provided by MatTek, using the equation: V=a+b log t Where V=percent viability, t=time in hours, and a and b are constants that can be determined by using the viability data for two different exposure times of the text article to the tissue.
"foam height, 30 sec (Foam height test)","foam height, 1 min (Foam height test)","foam height, 2 min (Foam height test)","foam height, Initial Reading (Foam height test)",Type of Foam (Foam height test),Compound,"ET50 ([1]; human, 1.25 % w/v) [h]",Irritancy Classification [2],ET50 [1] [h],ET50 (hrs) [1],Irritancy Classification [1],ET50 [2] [min],ET50 (min) [2]
80,78,70,86,Slightly loose,"CCCCCCCCN=c1ccn(CCCCCCCCCCn2ccc(=NCCCCCCCC)cc2)cc1 [Octenidine HCl, Octenidine dihydrochloride]",1.1,Severe,,,,,
60,56,52,70,Loose,"CCCCCCCCCCCCCCCCCC(=O)O.CCCCCCCCCCCCCCCCCC(=O)O.CCCCCCCCN=c1ccn(CCCCCCCCCCn2ccc(=NCCCCCCCC)cc2)cc1 [Octenidine distearate, octenidine distearate]",,"Non-Irritating, minimal",>24.0,greater than 24.0 hrs,Non-Irritating,>256.0,greater than 256.0 min
